# Results from US20250269018A1, “COMBINED CANCER THERAPY WITH AN EPITHELIAL CELL ADHESION MOLECULE (EPCAM) INHIBITOR AND A HEPATOCYTE GROWTH FACTOR RECEPTOR (HGFR) INHIBITOR” (ACADEMIA SINICA, priority 2021, published 2025).
# Assays:
# Format in all cases: cell-based, human
# [1] = test system: HGFR signaling; experiment: Western blotting of phosphorylated ERK and AKT in HT29 cells; details: SU11274 with EpEX-His, FIG. 2C
# Procedure: (§1) FIGS. 2A to 2K. EpEX promotes tumor progression via HGFR signaling. (FIG. 2A) WT or EpCAM knockout (KO) HCT116 and HT29 cells treated with HGF (0.5 nM) for 15 min. The phosphorylation of HGFR, AKT, and ERK was examined by Western blotting. (FIG. 2B) WT or KO HCT116 and HT29 cells were treated with HGF (0.5 nM) with 2% FBS for the indicated times. Cell growth was examined by the WST-1 assay. (FIG. 2C) Starved HCT116 cells were treated with HGFR inhibitor SU11274 (SU, 10 μM) for 1 h then treated with 50 nM of EpEX-His for 15 min. The levels of phosphorylated HGFR, EGFR, AKT, and ERK were examined by Western blotting. HCT116 and HT29 cells were treated with 50 nM EpEX and SU (10 μM). […]
# Whole cell extracts were prepared with RIPA buffer (50 mM Tris-HCl pH7.4, 1% NP-40, 0.5% Sodium deoxycholate, 0.1% SDS, 150 mM NaCl, 2 mM EDTA, 50 mM NaF). Protein concentrations of the cell lysates were determined by the Bradford assay. […]
# Appropriate horseradish peroxidase-associated secondary antibodies (Millipore) were applied and the membranes were incubated at room temperature (RT) for 1 h. The protein bands were subsequently visualized with chemiluminescence reagents (Millipore) and detected on a BioSpectrum 600 Imaging system (UVP). The protein level was quantified from band intensity using Gel-Pro analyzer 3.1 (Media Cybernetics).
# [2] = test system: HCT116 cells; experiment: Cell growth by WST-1 assay, HCT116; details: 50 nM EpEX and SU 10 μM, FIG. 2D
# Procedure: as §1, with “μM). (FIG. 2D) Cell growth was examined by WST-1 assay after treatment for indicated time. (FIG. 2E) HCT116 cells were treated with shLuc or HGFR shRNA then treated with 50 nM of EpEX-His for 15 min. The levels of phosphorylated HGFR, EGFR, ERK, and AKT were examined in HGFR knockdown HCT116 cells by Western blotting. (FIG. 2F) The levels of phosphorylated ADAM17 and presenilin 2 were examined by Western blotting.” for “μM).”
# (§2) Cell viability was assayed by measuring mitochondrial dehydrogenase activity with the WST-1 (4-[3-(4-lodophenyl)-2-(4-nitrophenyl)-2H-5-tetrazolio]-1, 3-benzene disulfonate) assay. […] Following the incubation, absorbance of each well was detected at 450 nm using a spectrophotometric microplate reader.
# [3] = test system: HT29 cells; experiment: Cell growth by WST-1 assay, HT29; details: 50 nM EpEX and SU 10 μM, FIG. 2D
# Procedure: as §1, with “μM). (FIG. 2D) Cell growth was examined by WST-1 assay after treatment for indicated time. (FIG. 2E) HCT116 cells were treated with shLuc or HGFR shRNA then treated with 50 nM of EpEX-His for 15 min. The levels of phosphorylated HGFR, EGFR, ERK, and AKT were examined in HGFR knockdown HCT116 cells by Western blotting. (FIG. 2F) The levels of phosphorylated ADAM17 and presenilin 2 were examined by Western blotting.” for “μM).”
# as §2
structure (smiles),measurement,setting,value
"Cc1[nH]c(C=C2C(=O)Nc3ccc(S(=O)(=O)N(C)c4cccc(Cl)c4)cc32)c(C)c1C(=O)N1CCN(C)CC1 (stereo in doubt) [SU11274, (3Z)-N-(3-Chlorophenyl)-3-({3,5-dimethyl-4-[(4-methylpiperazin-1-yl)carbonyl]-1H-pyrrol-2-yl}methylene)-N-methyl-2-oxo-2,3-dihydro-1H-indole-5-sulfonamide]",EpEX-mediated ERK and AKT phosphorylation,[1],attenuate EpEX-mediated ERK and AKT phosphorylation
same,EpEX-induced increases in cell viability and proliferation,[2],abolished the EpEX-induced increases in cell viability and proliferation
same,EpEX-induced increases in cell viability and proliferation,[3],abolished the EpEX-induced increases in cell viability and proliferation
